The test system of series [1] is T. cruzi amastigotes. The experiment in a line: Antiamastigote assay (intracellular, infected peritoneal macrophages, infection index by microscopy). Type of series: cell-based, Trypanosoma cruzi. The following applies: for IC50: Trypanosoma cruzi, Peritoneal macrophage, in Mus musculus, intracellular amastigotes in BALB/c peritoneal macrophages, 48 h, 30–0.23 μM, read-out: IC50 (μM) ± SD amastigote. The method, then: Our attention next turned to an evaluation of the activity of the various natural product analogues against T. cruzi amastigotes (evaluated microscopically using an ex vivo intracellular model with mice macrophages)[20] and trypomastigotes (resazurin in vitro assay).[30] […] Macrophages were collected from the peritoneal cavity of BALB/c mice by washing them with RPMI-1640 medium supplemented with 10% fetal calf serum and were maintained at 37 °C in a 5% CO2 humidified incubator. Trypomastigotes of T. cruzi (Y strain) were maintained in Rhesus monkey kidney cells (LLC-MK2, ATCC CCL 7) and cultivated in RPMI-1640 medium supplemented with 2% fetal calf serum at 37 °C in a 5% CO2 humidified incubator. Murine conjunctive cells (NCTC clone 929, ATCC) were maintained in RPMI-1640 supplemented with 10% FBS at 37 °C in a 5% CO2 humidified incubator.[20] Peritoneal macrophages (1 × 10^5 cells/well), collected from the peritoneal cavity of the BALB/c mice, were seeded in 16-well chamber slides (NUNC, Thermo Fisher Scientific) and infected with trypomastigotes (10:1, parasite/macrophage ratio). After 2 h, the compounds (in concentrations of 30–0.23 μM) were incubated with infected macrophages for 48 h at 37 °C in a 5% CO2 humidified incubator. The slides were fixed with MeOH, stained with Giemsa, and observed under a light microscope (EVOS M5000, Termo, USA) with digital image equipment. […] IC50 and CC50 values were calculated using a sigmoid dose–response curve in GraphPad Prism 6.0 software (GraphPad Software, San Diego, CA, USA). The assays were repeated at least twice, and the samples were tested in duplicate.

Series [2] relates to Fibroblast NCTC cells (clone 929). The experiment in a line: Cytotoxicity against mammalian cells (MTT). The format is cell-based, murine. The following applies: for SI (selectivity index): ratio between CC50 in NCTC cells and IC50 in intracellular amastigotes; for CC50 (μM) ± SD: NCTC clone 929 cells, 48 h, 200–1.56 μM, MTT. The procedure: (§1) Macrophages were collected from the peritoneal cavity of BALB/c mice by washing them with RPMI-1640 medium supplemented with 10% fetal calf serum and were maintained at 37 °C in a 5% CO2 humidified incubator. Trypomastigotes of T. cruzi (Y strain) were maintained in Rhesus monkey kidney cells (LLC-MK2, ATCC CCL 7) and cultivated in RPMI-1640 medium supplemented with 2% fetal calf serum at 37 °C in a 5% CO2 humidified incubator. Murine conjunctive cells (NCTC clone 929, ATCC) were maintained in RPMI-1640 supplemented with 10% FBS at 37 °C in a 5% CO2 humidified incubator.[20] […] The selectivity index (SI) was determined as CC50/IC50 against amastigotes. IC50 and CC50 values were calculated using a sigmoid dose–response curve in GraphPad Prism 6.0 software (GraphPad Software, San Diego, CA, USA). The assays were repeated at least twice, and the samples were tested in duplicate.

A short description of series [3]: Cytotoxicity against mammalian cells (MTT). Type of series: cell-based, murine. The following applies: mouse, NCTC clone 929 fibroblast cells; NCTC clone 929 cells, 48 h, 200–1.56 μM, MTT. The method, then:
as §1

Series [4] relates to T. cruzi (Y strain) trypomastigotes. Description: Antitrypomastigote assay (resazurin viability). The format is cell-based. The following applies: Trypanosoma cruzi, LLC-MK2-derived trypomastigotes, 24 h incubation, up to 100 μM, read-out: IC50 (μM) ± SD trypomastigote. The method, then:
Our attention next turned to an evaluation of the activity of the various natural product analogues against T. cruzi amastigotes (evaluated microscopically using an ex vivo intracellular model with mice macrophages)[20] and trypomastigotes (resazurin in vitro assay).[30] […] Macrophages were collected from the peritoneal cavity of BALB/c mice by washing them with RPMI-1640 medium supplemented with 10% fetal calf serum and were maintained at 37 °C in a 5% CO2 humidified incubator. Trypomastigotes of T. cruzi (Y strain) were maintained in Rhesus monkey kidney cells (LLC-MK2, ATCC CCL 7) and cultivated in RPMI-1640 medium supplemented with 2% fetal calf serum at 37 °C in a 5% CO2 humidified incubator. Murine conjunctive cells (NCTC clone 929, ATCC) were maintained in RPMI-1640 supplemented with 10% FBS at 37 °C in a 5% CO2 humidified incubator.[20] LLC-MK2-derived trypomastigotes were seeded (1 × 10^6 cells/well) in 96-well plates and incubated with the compounds serially diluted 2-fold (up to 100 μM) for 24 h in RPMI 1640 medium at 37 °C in a 5% CO2 humidified incubator. Subsequently, resazurin (0.011% in PBS) was added for 24 h to check the parasite viability.[30] The optical density was determined in the FilterMax F5 (Molecular Devices) at 570 nm. Benznidazole was used as the standard. IC50 and CC50 values were calculated using a sigmoid dose–response curve in GraphPad Prism 6.0 software (GraphPad Software, San Diego, CA, USA). The assays were repeated at least twice, and the samples were tested in duplicate.
Background: Alamar Blue is a resazurin reagent that responds to reducing activity.

In series [5] the test system is Fibroblast NCTC cells (clone 929). The conditions noted are these: cited from earlier work.
In series [6] the test system is T. cruzi amastigotes. The conditions noted are these: T. cruzi intracellular amastigotes; read-out: IC50 (μM) ± SD amastigote; cited from earlier work.

Read-outs that look alike come from different tables or passages of the source.

As for `C=CCc1ccc(Oc2cc(CC=C)cc(OC)c2OCOC)c(OC)c1` [Compound 5], the results for the IC50 in series [1] and in series [4] were 24.4 ± 10.3 µM and 6.5 ± 4.9 µM, respectively. In series [2], the “SI (selectivity index)” value was >8.2. In addition, the CC50 (commonly the concentration that lowers cell viability or growth by half) at 48 h in series [3] was > 200 µM.

In the case of `C=CCc1ccc(Oc2cc(CC=C)cc(OC)c2OCc2ccc(OC)cc2)c(OC)c1` [Compound 6], the IC50 (commonly the concentration that gives 50% inhibition) in series [1] came to 4 ± 1.4 µM. Also, the “fold more potent than the natural product 1 against the amastigotes” value in series [1] (relative to compound 1, amastigote IC50) was “approximately 20 fold”. For the same compound, in series [2], the “SI (selectivity index)” value is listed as >50. Moreover, in series [3], the CC50 at 48 h was > 200 µM.

Consider `CCCc1ccc(Oc2cc(CCC)cc(OC)c2OC)c(OC)c1` [Compound 9], for which the CC50 in series [5] (NCTC cells) is > 200 µM. Further, the “SI (selectivity index)” value in series [5] (ratio between CC50 in NCTC cells and IC50 in intracellular amastigotes) is reported as >15.0. Moreover, the IC50 in series [6] is 13.3 ± 1.2 µM.

Take `CCCc1ccc(Oc2cc(CCC)cc(OC)c2OCc2ccc(OC)cc2)c(OC)c1` [Compound 10]: in series [1], the IC50 is 5.5 ± 3.5 µM. Further, the “SI (selectivity index)” value in series [2] is on record as >36.4. The cytotoxic concentration (CC50) at 48 h in series [3] is > 200 µM.

Regarding `C=CCc1cc(OC)c(OC)c(Oc2ccc(CCC)cc2OC)c1` [Compound 11], the IC50 in series [1] came to 11.7 ± 7 µM; in series [4] it was 21.9 ± 6.1 µM. Moreover, the “SI (selectivity index)” value in series [2] is recorded as >17.1. For the same compound, the CC50 at 48 h in series [3] was > 200 µM.

As for `C=CCc1cc(OC)c(OCc2ccc(OC)cc2)c(Oc2ccc(CCC)cc2OC)c1` [Compound 12], the 50% inhibitory concentration (IC50) in series [1] came to 8.6 ± 2.1 µM. Further, the “SI (selectivity index)” value in series [2] is given as >23.3. For the same compound, the CC50 at 48 h in series [3] is > 200 µM.

Take `C=CCc1cc(OC)c(O)c(Oc2ccc(CCC)cc2OC)c1` [Compound 13]: in series [1], the IC50 came to 16.6 ± 1 µM. Further, in series [2], the “CC50 (μM) ± SD” value was “significant mammalian toxicity” and the “SI (selectivity index)” value was 2.5. In series [3], this compound came in with a CC50 at 48 h of 42 ± 3.8 µM. The IC50 in series [4] came to 7.6 ± 1.9 µM.

For `C=CCc1ccc(Oc2cc(CC=C)cc(OC)c2OCc2ccc(OC)cc2)cc1` [Compound 14], the IC50 in series [1] amounted to 11 ± 2.3 µM. Besides, in series [2], the “SI (selectivity index)” value was >18.2. The CC50 at 48 h in series [3] was > 200 µM.

For `C=CCc1ccc(Oc2cc(CC=C)cc(OC)c2O)cc1` [Compound 15, 3-methylobovatol], the values for the IC50 in series [1] and in series [4] were 22.5 ± 18.8 µM and 4.6 ± 3 µM, respectively. Further, the “SI (selectivity index)” value in series [2] came to 5.5. This compound had a CC50 at 48 h in series [3] of 123 ± 9.4 µM.

For `C=CCc1cc(OC)c(OC)c(Oc2ccccc2OC)c1` [Compound 16], the CC50 at 48 h in series [3] was > 200 µM. Besides, in series [4], the IC50 is 20.3 ± 0.4 µM.

For `C=CCc1cc(OC)c(OCc2ccc(OC)cc2)c(Oc2ccccc2OC)c1` [Compound 17], in series [3], the CC50 at 48 h was > 200 µM.

For `C=CCc1ccc(Oc2cc(CCC)cc(OC)c2OCc2ccc(OC)cc2)c(OC)c1` [Compound 18], the IC50 in series [1] was determined as 13.4 ± 5.4 µM. Moreover, the “SI (selectivity index)” value in series [2] is >14.9. The CC50 at 48 h in series [3] was > 200 µM.

For `C=CCc1ccc(Oc2cc(CCC)cc(OC)c2O)c(OC)c1` [Compound 19], the IC50 in series [1] turned out to be 10.5 ± 8.3 µM; in series [4] it was 4.6 ± 3.8 µM. The “CC50 (μM) ± SD” value in series [2] was “significant mammalian toxicity”. Besides, the “SI (selectivity index)” value in series [2] was 1.3. The compound further displayed a CC50 at 48 h in series [3] of 14.2 ± 0.1 µM.

Turning to `C=CCc1ccc(Oc2cccc(OC)c2OC)c(OC)c1` [Compound 20], the IC50 came to 25.7 ± 12.2 µM in series [1] and 63.1 ± 6.2 µM in series [4]. The “SI (selectivity index)” value in series [2] is given as >7.8. The CC50 at 48 h in series [3] is > 200 µM.

On to `C=CCc1ccc(Oc2cccc(OC)c2OCc2ccc(OC)cc2)c(OC)c1` [Compound 21], for which, in series [3], the CC50 at 48 h was > 200 µM.

Turning to `C=CCOc1c(OC)cccc1Oc1ccc(CC=C)cc1OC` [Compound 22], the CC50 at 48 h in series [3] is > 200 µM.

For the compound `C=CCc1ccc(O)c(Oc2ccc(CC=C)cc2OC)c1` [Compound 23], the IC50 in series [1] was found to be 7.7 ± 1.3 µM; in series [4], 2.5 ± 1.3 µM. Besides, the “SI (selectivity index)” value in series [2] came to 16.7. The compound further had a CC50 at 48 h in series [3] of 129 ± 5.2 µM.

With `C=CCc1ccc(Oc2cc(CC=C)ccc2OCc2ccc(OC)cc2)c(OC)c1` [Compound 24], the IC50 in series [1] stood at 11.6 ± 8.4 µM. Moreover, in series [2], the “SI (selectivity index)” value is >17.2. Moreover, the CC50 at 48 h in series [3] was > 200 µM.

For `C=CCc1cc(OC)cc(Oc2ccc(CC=C)cc2OC)c1` [Compound 25], the IC50 in series [1] turned out to be 10.9 ± 6.5 µM. Further, in series [2], the “SI (selectivity index)” value is reported as >18.3. Also, in series [3], the CC50 at 48 h is > 200 µM.

`O=C(Cn1ccnc1[N+](=O)[O-])NCc1ccccc1` [benznidazole, reference compound]: the IC50 turned out to be 5 ± 1.5 µM in series [1] and 17.7 ± 1.9 µM in series [4]. Besides, in series [2], the “SI (selectivity index)” value was found to be 38.1. Besides, in series [3], the midpoint of cytotoxicity, the CC50 at 48 h, lay at 191 ± 13.4 µM.

These data come from article PMC7670487 (ACS Infectious Diseases, 2020).
